Laboratory results published in patent US20170281779A1, “METHOD OF TREATING PATIENTS NON-RESPONSIVE TO PALONOSETRON” (Heron Therapeutics, Inc., priority 2013, published 2017).

Tests used:
[1] = system: chemotherapy-induced nausea and vomiting (CINV); assay: Clinical study of complete response (absence of emetic episodes) in chemotherapy patients; Cycle 1 palonosetron, Cycle 2 granisetron semi-solid delivery vehicle; format: in vivo, human; conditions: Cycle 1, palonosetron 0.25 mg intravenous
Procedure: As described in Example 2, the patients in the study were undergoing either a moderately emetogenic chemotherapy regimen or a highly emetogenic chemotherapy regimen. In a first cycle of the study, the patients were treated with (i) 5 mg of granisetron in a semi-solid drug delivery vehicle, administered subcutaneously; (ii) 10 mg of granisetron in a semi-solid drug delivery vehicle, administered subcutaneously; or (iii) palonosetron, 0.25 mg administered intravenously. Patients who received palonosetron in Cycle 1 and remained on study were re-randomized for treatment with 5 mg or 10 mg of granisetron, administered as comprised within a semi-solid drug delivery vehicle via subcutaneous injection of 250 mg vehicle or 500 mg vehicle.
In Cycle 1 of the study, 1395 patients receiving single doses of a moderately emetogenic chemotherapy (MEC) regimen or a highly emetogenic chemotherapy (HEC) regimen were randomized for treatment with one of three regimens: a semi-solid drug delivery vehicle comprising granisetron, administered subcutaneously to provide (i) 5 mg granisetron or (ii) 10 mg granisetron (via subcutaneous injection of 250 mg or 500 mg vehicle, respectively) or (iii) palonosetron, 0.25 mg intravenous. The palonosetron dose administered was the recommended dose of palonosetron (ALOXI®) for treatment of chemotherapy-induced nausea and vomiting in adults. Palonosetron, when administered intravenously at the above-dose, is indicated in adults for the prevention of both acute and delayed vomiting associated with initial and repeated courses of moderately emetogenic chemotherapy, and acute nausea and vomiting associated with initial and repeat courses of highly emetogenic chemotherapy.
Patients who received palonosetron in Cycle 1 and remained in the study were re-randomized for treatment in Cycle 2 with 5 mg or 10 mg granisetron administered subcutaneously as 250 mg or 500 mg, respectively, of the semi-solid drug delivery vehicle. […]

5-HT3 receptors = target: T1, 5-HT3 receptors (Homo sapiens, UniProt P46098); conditions: compared to first generation 5-HT3 receptor antagonists dolasetron, granisetron and ondansetron; cited from earlier work
T1 sequence (P46098 24-478): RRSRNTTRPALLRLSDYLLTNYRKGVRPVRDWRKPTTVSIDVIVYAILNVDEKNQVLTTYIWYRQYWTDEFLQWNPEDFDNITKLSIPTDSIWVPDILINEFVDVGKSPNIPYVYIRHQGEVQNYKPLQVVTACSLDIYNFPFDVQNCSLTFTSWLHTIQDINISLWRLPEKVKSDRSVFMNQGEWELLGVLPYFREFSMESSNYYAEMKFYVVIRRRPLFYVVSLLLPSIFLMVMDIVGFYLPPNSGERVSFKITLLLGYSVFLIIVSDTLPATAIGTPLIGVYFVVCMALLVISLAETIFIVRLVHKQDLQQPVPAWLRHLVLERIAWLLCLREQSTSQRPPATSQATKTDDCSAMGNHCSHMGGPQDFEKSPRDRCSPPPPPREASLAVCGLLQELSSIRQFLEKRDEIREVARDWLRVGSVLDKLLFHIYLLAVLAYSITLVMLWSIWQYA

[2] = cited from earlier work
[3] = compared to first generation 5-HT3 receptor antagonists dolasetron, granisetron and ondansetron

O=C1c2cccc3c2[C@H](CCC3)CN1[C@@H]1CN2CCC1CC2 [palonosetron]
overall (0-120 hour) failures ([1]; HEC patients (94/238)): 39.5% | overall (0-120 hour) failures ([1]; MEC patients (100/208)): 48.1% | overall (0-120 hour) failures ([1]; all 446 patients (MEC + HEC)): 43.5% | binding affinity to the 5-HT3 receptors (5-HT3 receptors): higher binding affinity | safety profile ([2]; as reported in the literature (Eisenberg et al. 2004)): excellent safety profile | half-life [2, 3]: significantly longer half-life | potency [2, 3]: higher potency
